Where two headings read alike, the source gives them in different places.
Key:
miRNA-211 = assay: miRNA expression in temporal cortex 48 hours after muscarinic agonist injection (RT-PCR); assay type: in vivo, mouse; details: 48 hours after injections
Experimental: (§1) β-actin and GAPDH were used as reference transcripts. Annealing temperature was 60° C. for all primers. Serial dilution of samples served to evaluate primers efficiency and the appropriate cDNA concentration that yields linear changes. -RT controls verified lack of genomic DNA. miRNA quantification using The TaqMan miRNA Assays (Applied Biosystems) was conducted in two-step RT-PCR kit according to the manufacturer's instructions.

miRNA-132 = assay: as above; assay type: in vivo, mouse; details: 48 hours after injections
Experimental: as §1

miR-211 = assay: Antisense blockage of miR-211 in cultured N9 cells, hnRNP A/B levels; assay type: cell-based
hnRNP A/B = hnRNP A/B expression in primary neuronal cultures incubated with cholinergic agonist; assay type: cell-based, mouse; details: 10 μM, 48 hours
Experimental: Primary mixed cortical cultures: Primary mouse cultures of neurons and glia were produced from E16 embryos. Pregnant mice were anesthetized with isoflurane and sacrificed by cervical dislocation. The uterus was removed and placed on ice. After 5 minutes the heads were dissected under binocular and cortices were removed, placed in cold DMEM, and triturated with a scalpel and up and down pippeting. The medium was replaced with neurobasal medium supplemented with 1:50 B27, 2 mM L-Glutamine (Invitrogen, Grand Island, N.Y.), 50 U penicillin and 50 μg/ml streptomycin (Biological Industries, Beit-haemek, Israel), cells were counted and plated in 12 or 24-well plated pre-treated with 10 μg/ml poly-lysine (Sigma, St. Louis). For confocal microscopy cells were plated on glass cover slips similarly treated.
Immunohistochemistry and immunofluorescence: Paraffin slides were rehydrated by washing in xylene and serial dilutions of ethanol in water. Heat-induced antigen retrieval involved boiling slides in 10 mM pH 6 citrate buffer for 10 minutes. Hydrogen peroxide methanol quench was performed for slides later developed with 3,3′-Diaminobenzidine tetrahydrochloride (DAB). […]

CC[C@@H]1C(=O)OC[C@@H]1Cc1cncn1C [muscarinic agonist, pilocarpine]
levels of miRNA-211 (miRNA-211): reduced | levels of miRNA-132 (miRNA-132): increased

Antisense oligonucleotides to miR-211: locked nucleic acid oligonucleotide complementary to miR-211; miR211 antagonist e.g. SEQ ID NO: 87 (antisense AGGCGAAGGATGACAAAGGGAA; locked nucleic acid oligonucleotide, pattern not given here)
hnRNP A/B levels (miR-211): increased | hnRNP A/B levels (miR-211; listed as locked nucleic acid complementary oligonucleotide): increases

C[N+](C)(C)CCOC(N)=O [carbachol]
expression of hnRNP A/B (hnRNP A/B): increased

Reference: patent US20130210901A1, “METHOD OF TREATING NEURODEGENERATIVE DISEASES” (Yissum Research Development Company of the Hebrew …, priority 2010, published 2013)
